Assay results taken from US9801901B2, “Alginate oligomers for use in overcoming multidrug resistance in bacteria” (priority 2009, dated 2017).
Converted amounts (≈) assume the structure as drawn. Where two headings read alike, the source gives them in different places. Marks after values point to notes of the source that are not given here.

What was measured:
[1] = tested on: PA01 Pseudomonas aeruginosa ATCC 15692; assay: MIC assay, two-fold antibiotic dilutions in CAMHB with alginate oligomer, no visible growth; format: cell-based; details: Pseudomonas aeruginosa, ATCC15692, Table 1, PA01, read-out: MIC
[2] = tested on: Pseudomonas aeruginosa CFA 24-1, clinical mucoid strain (R80); assay: MIC assay, CAMHB with alginate oligomer, no visible growth; format: cell-based; details: Pseudomonas aeruginosa, Table 1, R80, read-out: MIC
[3] = tested on: Pseudomonas aeruginosa MDR R22 from China (V1); assay: as above; format: cell-based; details: for MIC: Pseudomonas aeruginosa, Table 1, V1 MDR R22 PA, read-out: MIC
Description: (§1) The study described in Example 1 was repeated with the following strains of bacteria and antibiotics as detailed in Tables 4, 5 and 6.

[4] = tested on: Pseudomonas aeruginosa MDR 301 from Poland (V2); assay: as above; format: cell-based; details: Pseudomonas aeruginosa, Table 1, V2 MDR 301 PA, read-out: MIC
[5] = tested on: Acinetobacter baumannii MDR ACB from Libya (V4); assay: as above; format: cell-based; details: for MIC: Table 1, V4 ACB (Libya)
Description: as §1
The study described in Example 1 was repeated with the following strains of Acinetobacter baumannii, antibiotics and M-block alginate oligomer in place of OligoG CF-5/20 as detailed in Table 7. The M-block oligomer is 100% M with a DPn of 15 to 18,

[6] = tested on: V9 (Egypt) Acinetobacter baumannii; assay: as above; format: cell-based; details: Table 5, V9 MDR Acin. baum
[7] = tested on: V10 (Egypt) Acinetobacter lwoffii; assay: as above; format: cell-based; details: Table 5, V10 MDR Acin. lwoff
[8] = tested on: V12 5725 (Wales) Klebsiella pneumoniae; assay: as above; format: cell-based; details: Table 5, V12 MDR Kleb pneu
V22 6056 Acinetobacter = assay: as above; format: cell-based, Acinetobacter lwoffii; details: Table 5, V22 MDR Acin. lwoff
[9] = tested on: strains of Klebsiella pneumoniae displaying MDR phenotypes; assay: MIC-assay, Mueller-Hinton broth with G-block alginate, 384-well, OD600 (Table 10); format: cell-based
Description: Minimum inhibitory concentration (MICs) of different antibiotics for strains of Klebsiella pneumoniae displaying MDR phenotypes in the presence of varying concentrations of OligoCF-5/20 (0-10%). (MIC values are expressed in μg ml^−1).

MDR Providencia stuartii = assay: MIC-assay, Mueller-Hinton broth with G-block alginate, 384-well, OD600 (Table 11); format: cell-based; details: Providencia stuartii (IR57 India, V7) MDR
Description: (§2) Minimum inhibitory concentration (MICs) of different antibiotics for strains of E. coli and Providencia stuartii displaying MDR phenotypes in the presence of varying concentrations of OligoCF-5/20 (0-10%). (MIC values are expressed in μg ml^−1).

[10] = tested on: strains of E. coli displaying MDR phenotypes; assay: as above; format: cell-based; details: Escherichia coli, Escherichia coli (5702, Wales, V11) MDR, read-out: MIC
Description: as §2

[11] = tested on: Pseudomonas aeruginosa (MDR 301, PSA, V2); assay: MIC-assay, Mueller-Hinton broth with G-block alginate, 384-well, OD600; details: Pseudomonas aeruginosa, Table 8, V2
[12] = tested on: Burkholderia cepacia (1322, V23); assay: as above
[13] = tested on: Acinetobacter lwoffii (6056, V22); assay: as above
[14] = tested on: Acinetobacter baumannii (MDR ACB, Libya, V4); assay: as above
[15] = Acinetobacter baumannii, OligoCF-5/20 0G, read-out: MIC
[16] = Table 9, G-block (OligoCF-5/20) 0%
[17] = Table 9, G-block (OligoCF-5/20) 2%
[18] = Table 9, G-block (OligoCF-5/20) 6%
[19] = Table 9, G-block (OligoCF-5/20) 10%

CC(C)(O/N=C(\C(=O)N[C@@H]1C(=O)N2C(C(=O)[O-])=C(C[n+]3ccccc3)CS[C@H]12)c1csc(N)n1)C(=O)O [Ceftazidime]
MIC ([1]; OligoCF-5/20 0G): < 1 µg/mL
MIC ([1]; OligoCF-5/20 +2% G): < 1 µg/mL
MIC ([1]; OligoCF-5/20 +6% G): < 1 µg/mL
MIC ([1]; OligoCF-5/20 +10% G): < 1 µg/mL
MIC ([2]; OligoCF-5/20 0G): < 1 µg/mL
MIC ([2]; OligoCF-5/20 +2% G): < 1 µg/mL
MIC ([2]; OligoCF-5/20 +6% G): < 1 µg/mL
MIC ([2]; OligoCF-5/20 +10% G): < 1 µg/mL
MIC ([3]; OligoCF-5/20 0G): 128 µg/mL (≈ 234 µM)
MIC ([3]; OligoCF-5/20 +2% G): 64 µg/mL (≈ 117 µM)
MIC ([3]; OligoCF-5/20 +6% G): 32 µg/mL (≈ 58.5 µM)
MIC ([3]; OligoCF-5/20 +10% G): 8 µg/mL (≈ 14.6 µM)
change of MIC in combination with azithromycin by alginate oligomer ([3]; Table 3, MDR R22 PA strain): reduced
MIC ([4]; OligoCF-5/20 0G): 32 µg/mL (≈ 58.5 µM)
MIC ([4]; OligoCF-5/20 +2% G): 16 µg/mL (≈ 29.3 µM)
MIC ([4]; OligoCF-5/20 +6% G): 8 µg/mL (≈ 14.6 µM)
MIC ([4]; OligoCF-5/20 +10% G): 4 µg/mL (≈ 7.32 µM)
MIC [5, 15]: 512 µg/mL (≈ 937 µM)
MIC ([5]; Acinetobacter baumannii, OligoCF-5/20 +10% G, read-out: MIC): 256 µg/mL (≈ 468 µM)
effect in combination with alginate oligomers ([5]; Example 1, Acinetobacter baumannii isolate): more positive effect
MIC ([5]; OligoCF-5/20 +6% G): 512 µg/mL (≈ 937 µM)
change of MIC in combination with azithromycin by alginate oligomer ([5]; Table 3, MDR Acinetobacter baumannii isolate): reduced
MIC [6, 15]: > 512 µg/mL
MIC ([6]; OligoCF-5/20 +2% G): 512^† μg/ml
MIC ([6]; OligoCF-5/20 +6% G): 512^† μg/ml
MIC ([6]; OligoCF-5/20 +10% G): 256^† μg/ml
MIC ([7]; Acinetobacter lwoffii, OligoCF-5/20 0G, read-out: MIC): 2 µg/mL (≈ 3.66 µM)
MIC ([7]; OligoCF-5/20 +2% G): 2 µg/mL (≈ 3.66 µM)
MIC ([7]; OligoCF-5/20 +6% G): <0.5^† μg/ml
MIC ([7]; OligoCF-5/20 +10% G): <0.5^† μg/ml
MIC ([8]; Klebsiella pneumoniae, OligoCF-5/20 0G, read-out: MIC): 64 µg/mL (≈ 117 µM)
MIC ([8]; OligoCF-5/20 +2% G): 64 µg/mL (≈ 117 µM)
MIC ([8]; OligoCF-5/20 +6% G): 16^† μg/ml
MIC ([8]; OligoCF-5/20 +10% G): 16^† μg/ml
MIC (V22 6056 Acinetobacter; Acinetobacter, OligoCF-5/20 0G, read-out: MIC): 16 µg/mL (≈ 29.3 µM)
MIC (V22 6056 Acinetobacter; OligoCF-5/20 +2% G): 16 µg/mL (≈ 29.3 µM)
MIC (V22 6056 Acinetobacter; OligoCF-5/20 +6% G): 4^† μg/ml
MIC (V22 6056 Acinetobacter; OligoCF-5/20 +10% G): 2^† μg/ml
MIC ([9]; Klebsiella pneumoniae (5712, Wales, V12) MDR, G-block (OligoCF-5/20) 0%, read-out: MIC): > 16 µg/mL
MIC ([9]; Klebsiella pneumoniae (5712, Wales, V12) MDR, G-block (OligoCF-5/20) 2%, read-out: MIC): 8 µg/mL (≈ 14.6 µM)
MIC ([9]; Klebsiella pneumoniae (5712, Wales, V12) MDR, G-block (OligoCF-5/20) 6%, read-out: MIC): > 16 µg/mL
MIC ([9]; Klebsiella pneumoniae (5712, Wales, V12) MDR, G-block (OligoCF-5/20) 10%, read-out: MIC): > 16 µg/mL
MIC ([9]; Klebsiella pneumoniae (IR25, India, V6) MDR, G-block (OligoCF-5/20) 0%, read-out: MIC): > 1020 µg/mL
MIC ([9]; Klebsiella pneumoniae (IR25, India, V6) MDR, G-block (OligoCF-5/20) 2%): 1020 µg/mL (≈ 1870 µM)
MIC ([9]; Klebsiella pneumoniae (IR25, India, V6) MDR, G-block (OligoCF-5/20) 6%, read-out: MIC): > 1020 µg/mL
MIC ([9]; Klebsiella pneumoniae (IR25, India, V6) MDR, G-block (OligoCF-5/20) 10%): 1020 µg/mL (≈ 1870 µM)
MIC ([9]; Klebsiella pneumoniae (K3, India, V8) MDR, G-block (OligoCF-5/20) 0%, read-out: MIC): > 1020 µg/mL
MIC ([9]; Klebsiella pneumoniae (K3, India, V8) MDR, G-block (OligoCF-5/20) 2%, read-out: MIC): > 1020 µg/mL
MIC ([9]; Klebsiella pneumoniae (K3, India, V8) MDR, G-block (OligoCF-5/20) 6%, read-out: MIC): > 1020 µg/mL
MIC ([9]; Klebsiella pneumoniae (K3, India, V8) MDR, G-block (OligoCF-5/20) 10%, read-out: MIC): > 1020 µg/mL
MIC (MDR Providencia stuartii; G-block (OligoCF-5/20) 0%): > 1020 µg/mL
MIC (MDR Providencia stuartii; G-block (OligoCF-5/20) 2%): > 1020 µg/mL
MIC (MDR Providencia stuartii; G-block (OligoCF-5/20) 6%): > 1020 µg/mL
MIC (MDR Providencia stuartii; G-block (OligoCF-5/20) 10%): > 1020 µg/mL
MIC ([10]; G-block (OligoCF-5/20) 0%): > 16 µg/mL
MIC ([10]; G-block (OligoCF-5/20) 2%): > 16 µg/mL
MIC ([10]; G-block (OligoCF-5/20) 6%): > 16 µg/mL
MIC ([10]; G-block (OligoCF-5/20) 10%): > 16 µg/mL
MIC ([11]; G-block (OligoCF-5/20) 0%): 0.5 µg/mL (≈ 0.915 µM)
MIC ([11]; G-block (OligoCF-5/20) 6%): 0.25 µg/mL (≈ 0.457 µM)
MIC ([12]; Table 8, G-block (OligoCF-5/20) 0%): > 16 µg/mL
MIC ([12]; Table 8, G-block (OligoCF-5/20) 2%): > 16 µg/mL
MIC ([12]; Table 8, G-block (OligoCF-5/20) 6%): 16 µg/mL (≈ 29.3 µM)
MIC ([12]; Table 8, G-block (OligoCF-5/20) 10%): 16 µg/mL (≈ 29.3 µM)
MIC [13, 16]: 8 µg/mL (≈ 14.6 µM)
MIC [13, 17]: 4 µg/mL (≈ 7.32 µM)
MIC [13, 18]: 2 µg/mL (≈ 3.66 µM)
MIC [13, 19]: 2 µg/mL (≈ 3.66 µM)
MIC [14, 16]: 16 µg/mL (≈ 29.3 µM)
MIC [14, 17]: 8 µg/mL (≈ 14.6 µM)
MIC [14, 18]: 8 µg/mL (≈ 14.6 µM)
MIC [14, 19]: 8 µg/mL (≈ 14.6 µM)
